Measured values from US10047036B2, “Method for the synthesis of hydroxy-triglycerides and uses thereof for the prevention and treatment of diseases” (UNIVERSITAT DE LES ILLES BALEARS, priority 2014, dated 2018).

Columns and labels:
plasma glucose = plasma glucose in spontaneously hypertensive rats; assay type: in vivo; conditions: SHR rats, 9 days, 400 mg/kg every 12 hours, p.o.; fasting 12 hours
Excerpt: Metabolic and cardiovascular pathologies are closely related. The overfeeding which characterises our society not only gives rise to problems of obesity and excess weight. It is also linked to the appearance of diabetes, dyslipidaemia, hypertension, strokes, arteriosclerosis, ictus, etc. All of these pathologies increase the risk of premature death and can even cause death. In this sense, certain natural oils show a certain efficacy against this type of pathologies, but their power is limited. In contrast, the molecules of the invention have an important effect against the development of this type of pathologies. To be able to study the effects of the compounds of the invention for the prevention and treatment of metabolic and cardiovascular pathologies, hypertensive rats were used (SHR strain, spontaneously hypertensive rats). These rats present obesity, high blood pressure, dyslipidaemia (hypercholesterolemia and hypertriglyceridemia), diabetes, metabolic syndrome and other related health problems. At the same time, research was conducted into the efficacy of the hydroxy-triglycerides for controlling the high levels of glycaemia in SHR rats, and therefore, preventing or curing diabetes. Hypertensive rats (SHR) with an approximate weight of 300 grams were treated with TGM1 during 9 days (400 mg/kg, every 12 h, p.o.). Plasma glucose was measured before starting the treatment (basal) and 9 days later. In all cases, the plasma measurements were conducted in rats kept fasting during 12 hours. In this way, after 9 days of treatment, the levels of glucose in blood were reduced by up to more than 25% for the molecules of the invention (FIG. 5 and Table 4). [table]

triglycerides in plasma = experiment: plasma triglycerides in SHR rats; assay type: in vivo; conditions: 6 days, 400 mg/kg, p.o.
Excerpt: Metabolic and cardiovascular pathologies are closely related. The overfeeding which characterises our society not only gives rise to problems of obesity and excess weight. It is also linked to the appearance of diabetes, dyslipidaemia, hypertension, strokes, arteriosclerosis, ictus, etc. All of these pathologies increase the risk of premature death and can even cause death. In this sense, certain natural oils show a certain efficacy against this type of pathologies, but their power is limited. In contrast, the molecules of the invention have an important effect against the development of this type of pathologies. To be able to study the effects of the compounds of the invention for the prevention and treatment of metabolic and cardiovascular pathologies, hypertensive rats were used (SHR strain, spontaneously hypertensive rats). These rats present obesity, high blood pressure, dyslipidaemia (hypercholesterolemia and hypertriglyceridemia), diabetes, metabolic syndrome and other related health problems. […] [table]

[1] = molecular target: T1, Glycogen Branching Enzyme 1 (GBE1) variant Y329S (Homo sapiens, UniProt Q04446, Y329S); experiment: activity of purified enzyme GBE1 Y329S in the presence of PC membranes; assay type: biochemical; conditions: PC membranes with TGM 20 mol %; non-mutated enzyme = 100% (0.76 nmol/min · ng protein)
T1 sequence (Q04446 1-702 Y329S): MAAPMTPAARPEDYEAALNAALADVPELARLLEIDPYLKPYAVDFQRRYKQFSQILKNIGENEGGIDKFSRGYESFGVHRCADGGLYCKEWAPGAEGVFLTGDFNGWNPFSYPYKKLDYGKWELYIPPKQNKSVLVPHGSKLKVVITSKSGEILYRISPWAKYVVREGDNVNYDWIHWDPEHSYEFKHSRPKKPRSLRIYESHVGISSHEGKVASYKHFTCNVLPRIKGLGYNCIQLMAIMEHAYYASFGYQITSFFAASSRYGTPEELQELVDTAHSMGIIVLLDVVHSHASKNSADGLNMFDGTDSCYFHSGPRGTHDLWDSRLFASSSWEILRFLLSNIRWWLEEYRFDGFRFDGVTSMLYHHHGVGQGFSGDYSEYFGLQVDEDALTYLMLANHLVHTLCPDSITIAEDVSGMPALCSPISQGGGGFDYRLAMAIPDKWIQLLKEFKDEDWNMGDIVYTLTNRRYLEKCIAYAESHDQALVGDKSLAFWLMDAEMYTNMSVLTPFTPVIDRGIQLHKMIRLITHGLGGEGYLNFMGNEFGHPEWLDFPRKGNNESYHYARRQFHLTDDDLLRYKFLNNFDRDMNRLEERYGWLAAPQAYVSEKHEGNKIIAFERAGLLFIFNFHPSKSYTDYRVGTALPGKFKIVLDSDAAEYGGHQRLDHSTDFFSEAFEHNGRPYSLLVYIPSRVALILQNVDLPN
Excerpt: It has been possible to observe that the molecules of the present invention are capable of regulating the activity of the Glycogen Branching Enzyme 1 (GBE1) and its joining to membranes (Table 9). Alterations in this enzyme give rise to a neurodegenerative process known as APBD (Kakhlon et al., 2013). It has been described that a modification of tyrosine in position 329 of this enzyme (Y329S) causes a reduction in the activity of GBE1. This gives rise to a lower branching of glycogen, which precipitates forming […] which interfere with cell activity (Kakhlon et al., 2013). This gives rise to problems in the function of certain organs, to motor problems and, in some cases, to cognitive decline. We have been able to verify that the hydroxy-triglycerides of the present invention are capable of regulating the joining of native GBE1 (wild type, wt) and with the variant Y329S to membranes and to increase the activity of the form Y329S, which is very low in normal conditions (Table 9). For this reason, the molecules of the present invention are effective for the prevention and treatment of the polyglucosan bodies disease, APBD.

[2] = tested on: transgenic rat with 5 mutations of human familial Alzheimer's (Tag); experiment: radial maze test in transgenic rats with Alzheimer's; assay type: in vivo; conditions: for Errors made in the radial maze: Tag rats, 50 mg/kg p.o. daily, 100% = healthy animals without Alzheimer's
Procedure: In order to study Alzheimer's disease a transgenic rat model was used with 5 mutations which appear in human familiar Alzheimer's (symbolised as Tag, and abbreviated Tg). This model of Alzheimer's is very severe, and the animals already show a cognitive deficit at 2 months of age. To carry out this experiment, both young rats (of 3 months of age) and aged rats (of 10 months of age) were used and treated for 3 months with the hydroxy-triglycerides of the present invention (50 mg/kg day, p.o.). The rats were subjected to a low-calorie diet so that they would be hungry and carry out a test in a radial maze, in which food was placed in 4 of the device's 8 arms (asymmetrically), quantifying the number of errors committed until the exercise was completed. […]
The control animals were treated with vehicle (saline) and the rest with 50 mg/kg (p.o.) daily of the indicated compound.

CCCCCC(O)C(=O)OCC(COC(=O)C(O)CCCCC)OC(=O)C(O)CCCCC (stereo not drawn) [TGM0, 1,2,3-tri(2′-hydroxyheptanoyl)glycerol]
Δ G, change in glucose levels in plasma (plasma glucose): -4 mg/dL
TG, levels of triglycerides in plasma (triglycerides in plasma): 69.7 ± 7 mg/dL
Activity Y329S [1]: 20 ± 2%
Errors made in the radial maze [2]: 153.1%

CCCCCC=CCC=CCC=CCC=CCCC(O)C(=O)OCC(COC(=O)C(O)CCC=CCC=CCC=CCC=CCCCCC)OC(=O)C(O)CCC=CCC=CCC=CCC=CCCCCC (stereo not drawn) [TGM4, 1,2,3-tri(2′-hydroxy-eicosa-5′,8′,11′,14′-tetraenoyl)glycerol]
Δ G, change in glucose levels in plasma (plasma glucose): -5 mg/dL
TG, levels of triglycerides in plasma (triglycerides in plasma): 69.3 ± 3 mg/dL
Activity Y329S [1]: 4 ± 1%
Errors made in the radial maze [2]: 101.0%

CCCCCC=CCC=CCCCCCCC(O)C(=O)OCC(COC(=O)C(O)CCCCCCC=CCC=CCCCCC)OC(=O)C(O)CCCCCCC=CCC=CCCCCC (stereo not drawn) [TGM2, 1,2,3-tri(2′-hydroxy-octadec-9′,12′-dienoyl)glycerol]
Δ G, change in glucose levels in plasma (plasma glucose): -7 mg/dL
TG, levels of triglycerides in plasma (triglycerides in plasma): 61.7 ± 3 mg/dL
Activity Y329S [1]: 11 ± 2%
Errors made in the radial maze [2]: 143.2%

CCCCCC=CCC=CCC=CCCCC(O)C(=O)OCC(COC(=O)C(O)CCCC=CCC=CCC=CCCCCC)OC(=O)C(O)CCCC=CCC=CCC=CCCCCC (stereo not drawn) [TGM3G, 1,2,3-tri(2′-hydroxy-octadec-6′,9′,12′-trienoyl)glycerol]
Δ G, change in glucose levels in plasma (plasma glucose): -9 mg/dL
TG, levels of triglycerides in plasma (triglycerides in plasma): 64.1 ± 5 mg/dL
Activity Y329S [1]: 9 ± 4%
Errors made in the radial maze [2]: 156.8%

CCC=CCC=CCC=CCCCCCCC(O)C(=O)OCC(COC(=O)C(O)CCCCCCC=CCC=CCC=CCC)OC(=O)C(O)CCCCCCC=CCC=CCC=CCC (stereo not drawn) [TGM3A, 1,2,3-tri(2′-hydroxy-octadec-9′,12′,15′-trienoyl)glycerol]
Δ G, change in glucose levels in plasma (plasma glucose): -14 mg/dL
TG, levels of triglycerides in plasma (triglycerides in plasma): 54.8 ± 4 mg/dL
Activity Y329S [1]: 10 ± 2%
Errors made in the radial maze [2]: 134.5%

CCC=CCC=CCC=CCC=CCC=CCC=CCC(O)C(=O)OCC(COC(=O)C(O)CC=CCC=CCC=CCC=CCC=CCC=CCC)OC(=O)C(O)CC=CCC=CCC=CCC=CCC=CCC=CCC (stereo not drawn) [TGM6, 1,2,3-tri(2′-hydroxy-docosa-4′,7′,10′,13′,16′,19′-hexanoyl)glycerol]
Δ G, change in glucose levels in plasma (plasma glucose): -16 mg/dL
TG, levels of triglycerides in plasma (triglycerides in plasma): 49.4 ± 4 mg/dL
Activity Y329S [1]: 5 ± 1%
Errors made in the radial maze [2]: 84.7%
number of errors in the radial maze (FIG. 7A) ([2]; young and aged Tg rats, 3 months, 50 mg/kg day p.o., errors of first week of tests = 100%): below 100%

CCC=CCC=CCC=CCC=CCC=CCCC(O)C(=O)OCC(COC(=O)C(O)CCC=CCC=CCC=CCC=CCC=CCC)OC(=O)C(O)CCC=CCC=CCC=CCC=CCC=CCC (stereo not drawn) [TGM5, 1,2,3-tri(2′-hydroxy-eicosa-5′,8′,11′,14′,17′-pentaenoyl)glycerol]
Δ G, change in glucose levels in plasma (plasma glucose): -13 mg/dL
TG, levels of triglycerides in plasma (triglycerides in plasma): 56.2 ± 3 mg/dL
Activity Y329S [1]: 16 ± 3%
Errors made in the radial maze [2]: 121.3%

CCCCCCCCC=CCCCCCCC(O)C(=O)OCC(COC(=O)C(O)CCCCCCC=CCCCCCCCC)OC(=O)C(O)CCCCCCC=CCCCCCCCC (stereo not drawn) [TGM1, 1,2,3-tri(2′-hydroxy-octadec-9′-enoyl)glycerol]
Δ G, change in glucose levels in plasma (plasma glucose): -20 mg/dL
TG, levels of triglycerides in plasma (triglycerides in plasma): 51.6 ± 4 mg/dL
Activity Y329S [1]: 7 ± 1%
Errors made in the radial maze [2]: 128.9%
